Drawing on patent publication US11130769B2 (Prelude Therapeutics Incorporated, priority 2018, dated 2021), this text covers Ki and IC50 for 16 compounds.

Test [1] deals with MCL-1 (Homo sapiens (Human), UniProt Q07820). As to the kind of experiment: Cell free Mcl-1:Bim affinity assay (fluorescence polarization competition). As to conditions: 15 nM MCL-1, 5 nM FITC-Bim, 1 hour at room temperature; class symbols; read-out: BIM_Ki. In kind it is binding. In outline:
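Compounds competed with FITC-labelled Bim peptide (5 nM) for MCL-1 (15 nM) in HEPES/NaCl buffer with 1% DMSO, 1 h at room temperature. Fluorescence polarization (535 nm emission) gave % inhibition versus DMSO and positive controls; IC50 from 10-point curves, converted to Ki by the Nikolovska-Coleska equation.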
On the technique in general: Fluorescence polarisation rises when a labelled molecule tumbles more slowly, as on binding a larger partner.

Test [2] concerns H929 cells. As to the kind of experiment: Cell viability assay (H929 10 FBS). Type of test: cell-based. As to conditions: Homo sapiens, NCI-H929, 24 hours, read-out: H929_10FBS IC50. The method, boiled down:
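H929 cells, 4000/well, in RPMI 1640 with 10% FBS, sodium pyruvate, HEPES and glucose were exposed to compound 24 h at 37 °C. Viability read as luminescence after 30-60 min at RT with CellTiter-Glo or ATPlite 1 Step.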

MCL-1, sequence (Q07820 whole entry): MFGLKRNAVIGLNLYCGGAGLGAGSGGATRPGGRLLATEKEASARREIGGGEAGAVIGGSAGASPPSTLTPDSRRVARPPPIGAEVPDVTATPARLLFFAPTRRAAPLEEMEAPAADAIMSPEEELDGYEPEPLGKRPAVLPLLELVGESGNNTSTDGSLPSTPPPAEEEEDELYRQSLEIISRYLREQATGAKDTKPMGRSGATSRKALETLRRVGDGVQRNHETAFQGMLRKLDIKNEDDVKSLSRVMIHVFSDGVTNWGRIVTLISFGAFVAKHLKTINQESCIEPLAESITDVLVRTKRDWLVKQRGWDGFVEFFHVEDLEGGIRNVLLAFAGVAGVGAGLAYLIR

One may read the IC50 as the concentration that gives 50% inhibition. In the case of `CC1(C)OC/C=C/[C@H](OC(=O)N2CCC(F)(F)C2)[C@@H]2CC[C@H]2CN2C[C@@]3(CCCc4cc(Cl)ccc43)COc3ccc(cc32)S(=O)(=O)NC1=O` [Example 166, [(3R,6R,7S,8E,22S)-6′-Chloro-12,12-dimethyl-13,15,15-trioxo-spiro[11,20-dioxa-15-thia-1,14-diazatetracyclo[14.7.2.03,6.019,24]pentacosa-8,16,18,24-tetraene-22,1′-tetralin]-7-yl] 3,3-difluoropyrrolidine-1-carboxylate], the Ki in test [1] is less than 0.001 µM. Further, the concentration for half-maximal inhibition (IC50) in test [2] was less than 0.5 µM.
Take `CONC(=O)O[C@H]1/C=C/COC(C)(C)C(=O)NS(=O)(=O)c2ccc3c(c2)N(C[C@@H]2CC[C@H]21)C[C@@]1(CCCc2cc(Cl)ccc21)CO3` [Example 167, [(3R,6R,7S,8E,22S)-6′-Chloro-12,12-dimethyl-13,15,15-trioxo-spiro[11,20-dioxa-15-thia-1,14-diazatetracyclo[14.7.2.03,6.019,24]pentacosa-8,16,18,24-tetraene-22,1′-tetralin]-7-yl] N-methoxycarbamate]: the Ki in test [1] is less than 0.001 µM. The IC50 in test [2] is less than 0.5 µM.
With `CN(C)C[C@@H]1CCCN1C(=O)O[C@H]1/C=C/COC(C)(C)C(=O)NS(=O)(=O)c2ccc3c(c2)N(C[C@@H]2CC[C@H]21)C[C@@]1(CCCc2cc(Cl)ccc21)CO3` [Example 168, [(3R,6R,7S,8E,22S)-6′-Chloro-12,12-dimethyl-13,15,15-trioxo-spiro[11,20-dioxa-15-thia-1,14-diazatetracyclo[14.7.2.03,6.019,24]pentacosa-8,16,18,24-tetraene-22,1′-tetralin]-7-yl] (2S)-2-[(dimethylamino)methyl]pyrrolidine-1-carboxylate], in test [1], the Ki is less than 0.001 µM. Besides, in test [2], the half-inhibitory concentration (IC50) was less than 0.5 µM.
As for `CC1(C)OC/C=C/[C@H](OC(=O)N2CC3CCC(C2)O3)[C@@H]2CC[C@H]2CN2C[C@@]3(CCCc4cc(Cl)ccc43)COc3ccc(cc32)S(=O)(=O)NC1=O` [Example 170, [(3R,6R,7S,8E,22S)-6′-Chloro-12,12-dimethyl-13,15,15-trioxo-spiro[11,20-dioxa-15-thia-1,14-diazatetracyclo[14.7.2.03,6.019,24]pentacosa-8,16,18,24-tetraene-22,1′-tetralin]-7-yl] 8-oxa-3-azabicyclo[3.2.1]octane-3-carboxylate], the Ki in test [1] is less than 0.001 µM. In addition, the IC50 in test [2] was less than 1 µM.
The matching figures for `CC1(C)OC/C=C/[C@H](OC(=O)N2CCN3CCOC[C@H]3C2)[C@@H]2CC[C@H]2CN2C[C@@]3(CCCc4cc(Cl)ccc43)COc3ccc(cc32)S(=O)(=O)NC1=O` [Example 171, [(3R,6R,7S,8E,22S)-6′-Chloro-12,12-dimethyl-13,15,15-trioxo-spiro[11,20-dioxa-15,6-thia-1,14-diazatetracyclo[14.7.2.03,6.019,24]pentacosa-8,16,18,24-tetraene-22,1′-tetralin]-7-yl](9aS)-3,4,6,7,9,9a-hexahydro-1H-pyrazino[2,1-c][1,4]oxazine-8-carboxylate]: less than 0.001 µM and less than 0.5 µM.
With `CC1(C)OC/C=C/[C@H](OC(=O)N2CCOCC2)[C@@H]2CC[C@H]2CN2C[C@@]3(CCCc4cc(Cl)ccc43)COc3ccc(cc32)S(=O)(=O)NC1=O` [Example 172, [(3R,6R,7S,8E,22S)-6′-Chloro-12,12-dimethyl-13,15,15-trioxo-spiro[11,20-dioxa-15-thia-1,14-diazatetracyclo[14.7.2.03,6.019,24]pentacosa-8,16,18,24-tetraene-22,1′-tetralin]-7-yl]morpholine-4-carboxylate], the Ki in test [1] was less than 0.001 µM. Moreover, the half-maximal inhibitory concentration (IC50) in test [2] was less than 0.5 µM.
The like results for `CC1(C)OC/C=C/[C@H](OC(=O)N2CCCC2)[C@@H]2CC[C@H]2CN2C[C@@]3(CCCc4cc(Cl)ccc43)COc3ccc(cc32)S(=O)(=O)NC1=O` [Example 173, [(3R,6R,7S,8E,22S)-6′-Chloro-12,12-dimethyl-13,15,15-trioxo-spiro[11,20-dioxa-15-thia-1,14-diazatetracyclo[14.7.2.03,6.019,24]pentacosa-8,16,18,24-tetraene-22,1′-tetralin]-7-yl]pyrrolidine-1-carboxylate] were, in that order, less than 0.001 µM and less than 0.5 µM.
On to `CC1(C)OC/C=C/[C@H](OC(=O)N2CCC2)[C@@H]2CC[C@H]2CN2C[C@@]3(CCCc4cc(Cl)ccc43)COc3ccc(cc32)S(=O)(=O)NC1=O` [Example 174, [(3R,6R,7S,8E,22S)-6′-Chloro-12,12-dimethyl-13,15,15-trioxo-spiro[11,20-dioxa-15-thia-1,14-diazatetracyclo[14.7.2.03,6.019,24]pentacosa-8,16,18,24-tetraene-22,1′-tetralin]-7-yl] azetidine-1-carboxylate], for which, in test [1], the Ki is less than 0.001 µM. Moreover, the IC50 in test [2] is less than 0.5 µM.
As for `C[C@@H]1CN(C(=O)O[C@H]2/C=C/COC(C)(C)C(=O)NS(=O)(=O)c3ccc4c(c3)N(C[C@@H]3CC[C@H]32)C[C@@]2(CCCc3cc(Cl)ccc32)CO4)CCN1` [Example 175, [(3R,6R,7S,8E,22S)-6′-Chloro-12,12-dimethyl-13,15,15-trioxo-spiro[11,20-dioxa-15-thia-1,14-diazatetracyclo[14.7.2.03,6.019,24]pentacosa-8,16,18,24-tetraene-22,1′-tetralin]-7-yl] (3R)-3-methylpiperazine-1-carboxylate], in test [1], the Ki was less than 0.001 µM. For the same compound, the IC50 in test [2] was less than 0.5 µM.
Consider `C[C@H]1CN(C(=O)O[C@H]2/C=C/COC(C)(C)C(=O)NS(=O)(=O)c3ccc4c(c3)N(C[C@@H]3CC[C@H]32)C[C@@]2(CCCc3cc(Cl)ccc32)CO4)CCN1` [Example 176, [(3R,6R,7S,8E,22S)-6′-Chloro-12,12-dimethyl-13,15,15-trioxo-spiro[11,20-dioxa-15-thia-1,14-diazatetracyclo[14.7.2.03,6.019,24]pentacosa-8,16,18,24-tetraene-22,1′-tetralin]-7-yl] (3S)-3-methylpiperazine-1-carboxylate], for which the Ki in test [1] is less than 0.001 µM. The IC50 in test [2] is less than 0.5 µM.
For the compound `CC1(C)OC/C=C/[C@H](OC(=O)N2CCN(c3ccccn3)CC2)[C@@H]2CC[C@H]2CN2C[C@@]3(CCCc4cc(Cl)ccc43)COc3ccc(cc32)S(=O)(=O)NC1=O` [Example 177, [(3R,6R,7S,8E,22S)-6′-Chloro-12,12-dimethyl-13,15,15-trioxo-spiro[11,20-dioxa-15-thia-1,14-diazatetracyclo[14.7.2.03,6.019,24]pentacosa-8,16,18,24-tetraene-22,1′-tetralin]-7-yl] 4-(2-pyridyl)piperazine-1-carboxylate], the Ki in test [1] was 0.001 to 0.1 µM. Further, the half-maximal inhibitory concentration (IC50) in test [2] is less than 0.5 µM.
Regarding `CC1(C)OC/C=C/[C@H](OC(=O)NCCc2cccnc2)[C@@H]2CC[C@H]2CN2C[C@@]3(CCCc4cc(Cl)ccc43)COc3ccc(cc32)S(=O)(=O)NC1=O` [Example 178, [(3R,6R,7S,8E,22S)-6′-Chloro-12,12-dimethyl-13,15,15-trioxo-spiro[11,20-dioxa-15λ^6-thia-1,14-diazatetracyclo[14.7.2.0^3,6.0^19,24]pentacosa-8,16,18,24-tetraene-22,1′-tetralin]-7-yl] N-[2-(3-pyridyl)ethyl]carbamate], the Ki in test [1] is less than 0.001 µM. The IC50 in test [2] was less than 0.5 µM.
The like results for `CC1(C)OC/C=C/[C@H](OC(=O)NCC(F)F)[C@@H]2CC[C@H]2CN2C[C@@]3(CCCc4cc(Cl)ccc43)COc3ccc(cc32)S(=O)(=O)NC1=O` [Example 179, [(3R,6R,7S,8E,22S)-6′-Chloro-12,12-dimethyl-13,15,15-trioxo-spiro[11,20-dioxa-15-thia-1,14-diazatetracyclo[14.7.2.03,6.019,24]pentacosa-8,16,18,24-tetraene-22,1′-tetralin]-7-yl] N-(2,2-difluoroethyl)carbamate] were, in that order, less than 0.001 µM and less than 0.5 µM.
Consider `CC1(C)OC/C=C/[C@H](OC(=O)NCCN2CCOCC2)[C@@H]2CC[C@H]2CN2C[C@@]3(CCCc4cc(Cl)ccc43)COc3ccc(cc32)S(=O)(=O)NC1=O` [Example 180, [(3R,6R,7S,8E,22S)-6′-Chloro-12,12-dimethyl-13,15,15-trioxo-spiro[11,20-dioxa-15-thia-1,14-diazatetracyclo[14.7.2.03,6.019,24]pentacosa-8,16,18,24-tetraene-22,1′-tetralin]-7-yl] N-(2-morpholinoethyl)carbamate], for which the Ki in test [1] was less than 0.001 µM. In addition, the IC50 in test [2] is less than 0.5 µM.
In the case of `CC(C)NC(=O)O[C@H]1/C=C/COC(C)(C)C(=O)NS(=O)(=O)c2ccc3c(c2)N(C[C@@H]2CC[C@H]21)C[C@@]1(CCCc2cc(Cl)ccc21)CO3` [Example 181, [(3R,6R,7S,8E,22S)-6′-Chloro-12,12-dimethyl-13,15,15-trioxo-spiro[11,20-dioxa-15-thia-1,14-diazatetracyclo[14.7.2.03,6.019,24]pentacosa-8,16,18,24-tetraene-22,1′-tetralin]-7-yl] N-isopropylcarbamate], in test [1], the Ki is less than 0.001 µM. For the same compound, the IC50 in test [2] was less than 0.5 µM.
For `CC(C)CNC(=O)O[C@H]1/C=C/COC(C)(C)C(=O)NS(=O)(=O)c2ccc3c(c2)N(C[C@@H]2CC[C@H]21)C[C@@]1(CCCc2cc(Cl)ccc21)CO3` [Example 182, [(3R,6R,7S,8E,22S)-6′-Chloro-12,12-dimethyl-13,15,15-trioxo-spiro[11,20-dioxa-15-thia-1,14-diazatetracyclo[14.7.2.03,6.019,24]pentacosa-8,16,18,24-tetraene-22,1′-tetralin]-7-yl] N-isobutylcarbamate], the Ki in test [1] is less than 0.001 µM. The IC50 in test [2] is less than 0.5 µM.
